From ChEMBL document CHEMBL1201862, “PubChem BioAssay data set” (2004)
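Cultured in 96-well plates, cells were exposed to test compound for 48 hours across five concentrations. Here, GI50 denotes the concentration required for 50% inhibition of growth.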 The source made the active and inactive calls. Cut-off read from the data, not from the text of the source: active = GI50 up to about 1.1 µM and inactive = higher.

Key:
Assay in all cases: NCI-60 cell line screen, 48 h
[1] = tested on: HCT-116
[2] = tested on: T47D
[3] = tested on: KM12
[4] = tested on: RXF 393
[5] = tested on: LOX IMVI
[6] = tested on: OVCAR-3
[7] = tested on: SK-MEL-28
[8] = tested on: RPMI-8226
[9] = tested on: M14
[10] = tested on: SNB-75
[11] = tested on: SF-268
[12] = tested on: MDA-MB-435
[13] = tested on: SF-539
[14] = tested on: HOP-92
[15] = tested on: NCI-H522
[16] = tested on: COLO 205
[17] = tested on: UACC-257
[18] = tested on: OVCAR-8
[19] = tested on: SW-620
[20] = tested on: HOP-62
[21] = tested on: NCI/ADR-RES
[22] = tested on: K562
[23] = tested on: HCC 2998
[24] = tested on: Malme-3M
[25] = tested on: SK-MEL-5
[26] = tested on: PC-3
[27] = tested on: 786-0
[28] = tested on: MDA-N
[29] = tested on: SNB-19
[30] = tested on: HCT-15
[31] = tested on: U-251
[32] = tested on: A498
[33] = tested on: NCI-H460
[34] = tested on: UO-31
[35] = tested on: MCF7
[36] = tested on: NCI-H226
[37] = tested on: MOLT-4
[38] = tested on: OVCAR-5
[39] = tested on: CAKI-1
[40] = tested on: NCI-H23
[41] = tested on: SK-MEL-2
[42] = tested on: ACHN
[43] = tested on: BT-549
[44] = tested on: IGROV-1
[45] = tested on: SK-OV-3
[46] = tested on: MDA-MB-231
[47] = tested on: SN12C
[48] = tested on: OVCAR-4
[49] = tested on: A549
[50] = tested on: TK-10
[51] = tested on: EKVX
[52] = tested on: SF-295
[53] = tested on: HL-60
[54] = tested on: HT-29
[55] = tested on: CCRF-CEM
[56] = tested on: DU-145
[57] = tested on: Hs-578T
[58] = tested on: SR
[59] = tested on: UACC-62

CCOC(=O)C1=C(N2CCCC2)C(=O)C(C(=O)OCC)C1 (centres undefined)
GI50 [1]: > 100 µM (inactive) | GI50 [2]: > 100 µM (inactive) | GI50 [3]: > 100 µM (inactive) | GI50 [4]: > 100 µM (inactive) | GI50 [5]: > 100 µM (inactive) | GI50 [6]: > 100 µM (inactive) | GI50 [7]: > 100 µM (inactive) | GI50 [8]: > 100 µM (inactive) | GI50 [9]: > 100 µM (inactive) | GI50 [10]: > 100 µM (inactive) | GI50 [11]: > 100 µM (inactive) | GI50 [12]: > 100 µM (inactive) | GI50 [13]: > 100 µM (inactive) | GI50 [14]: > 100 µM (inactive) | GI50 [15]: > 100 µM (inactive) | GI50 [16]: > 100 µM (inactive) | GI50 [17]: > 100 µM (inactive) | GI50 [18]: > 100 µM (inactive) | GI50 [19]: > 100 µM (inactive) | GI50 [20]: > 100 µM (inactive) | GI50 [21]: > 100 µM (inactive) | GI50 [22]: > 100 µM (inactive) | GI50 [23]: > 100 µM (inactive) | GI50 [24]: > 100 µM (inactive) | GI50 [25]: > 100 µM (inactive) | GI50 [26]: > 100 µM (inactive) | GI50 [27]: > 100 µM (inactive) | GI50 [28]: > 100 µM (inactive) | GI50 [29]: > 100 µM (inactive) | GI50 [30]: > 100 µM | GI50 [31]: > 100 µM (inactive) | GI50 [32]: > 100 µM (inactive) | GI50 [33]: > 100 µM (inactive) | GI50 [34]: > 100 µM (inactive) | GI50 [35]: > 100 µM (inactive) | GI50 [36]: > 100 µM (inactive) | GI50 [37]: > 100 µM (inactive) | GI50 [38]: > 100 µM (inactive) | GI50 [39]: > 100 µM (inactive) | GI50 [40]: > 100 µM (inactive) | GI50 [41]: > 100 µM (inactive) | GI50 [42]: > 100 µM (inactive) | GI50 [43]: > 100 µM (inactive) | GI50 [44]: > 100 µM (inactive) | GI50 [45]: > 100 µM (inactive) | GI50 [46]: > 100 µM (inactive) | GI50 [47]: > 100 µM (inactive) | GI50 [48]: > 100 µM (inactive) | GI50 [49]: > 100 µM (inactive) | GI50 [50]: > 100 µM (inactive) | GI50 [51]: > 100 µM (inactive) | GI50 [52]: > 100 µM (inactive)

O=C1c2cc3c(cc2CC12Cc1ccc4c(c1C2=O)CCCC4)CCCC3 (centres undefined)
GI50 [1]: 27.7 µM (inactive) | GI50 [2]: > 100 µM (inactive) | GI50 [4]: 42 µM (inactive) | GI50 [5]: > 100 µM (inactive) | GI50 [6]: 21.1 µM (inactive) | GI50 [7]: > 100 µM (inactive) | GI50 [8]: > 100 µM (inactive) | GI50 [9]: > 100 µM (inactive) | GI50 [10]: 69.8 µM (inactive) | GI50 [11]: 50.2 µM (inactive) | GI50 [12]: > 100 µM (inactive) | GI50 [13]: 36.1 µM (inactive) | GI50 [14]: 21.4 µM (inactive) | GI50 [53]: > 100 µM (inactive) | GI50 [15]: 85.7 µM (inactive) | GI50 [17]: > 100 µM (inactive) | GI50 [18]: 67 µM (inactive) | GI50 [19]: > 100 µM (inactive) | GI50 [20]: 50.6 µM (inactive) | GI50 [54]: > 100 µM (inactive) | GI50 [21]: 44.7 µM (inactive) | GI50 [22]: > 100 µM (inactive) | GI50 [23]: > 100 µM (inactive) | GI50 [24]: 21.5 µM (inactive) | GI50 [25]: > 100 µM (inactive) | GI50 [26]: > 100 µM (inactive) | GI50 [27]: 20.1 µM (inactive) | GI50 [28]: > 100 µM (inactive) | GI50 [29]: 40.8 µM (inactive) | GI50 [30]: > 100 µM | GI50 [55]: > 100 µM (inactive) | GI50 [56]: > 100 µM (inactive) | GI50 [31]: 24 µM (inactive) | GI50 [32]: 21.4 µM (inactive) | GI50 [33]: 97.9 µM (inactive) | GI50 [34]: > 100 µM (inactive) | GI50 [35]: > 100 µM (inactive) | GI50 [37]: > 100 µM (inactive) | GI50 [38]: > 100 µM (inactive) | GI50 [39]: > 100 µM (inactive) | GI50 [40]: 79.1 µM (inactive) | GI50 [41]: 45.6 µM (inactive) | GI50 [42]: 48.1 µM (inactive) | GI50 [44]: 80.7 µM (inactive) | GI50 [45]: 32.8 µM (inactive) | GI50 [46]: 48.3 µM (inactive) | GI50 [57]: 61.7 µM (inactive) | GI50 [58]: > 100 µM (inactive) | GI50 [48]: 25.9 µM (inactive) | GI50 [49]: 82.6 µM (inactive) | GI50 [50]: > 100 µM (inactive) | GI50 [51]: > 100 µM (inactive) | GI50 [52]: 92.5 µM (inactive)

CCOCCOCCOCc1nc(C#N)c(N)o1
GI50 [1]: > 100 µM (inactive) | GI50 [2]: > 100 µM (inactive) | GI50 [3]: > 100 µM (inactive) | GI50 [4]: > 100 µM (inactive) | GI50 [5]: > 100 µM (inactive) | GI50 [6]: > 100 µM (inactive) | GI50 [7]: > 100 µM (inactive) | GI50 [8]: > 100 µM (inactive) | GI50 [9]: > 100 µM (inactive) | GI50 [10]: > 100 µM (inactive) | GI50 [11]: > 100 µM (inactive) | GI50 [12]: > 100 µM (inactive) | GI50 [13]: > 100 µM (inactive) | GI50 [53]: > 100 µM (inactive) | GI50 [15]: 93.1 µM (inactive) | GI50 [16]: > 100 µM (inactive) | GI50 [17]: > 100 µM (inactive) | GI50 [18]: > 100 µM (inactive) | GI50 [19]: > 100 µM (inactive) | GI50 [20]: > 100 µM (inactive) | GI50 [54]: > 100 µM (inactive) | GI50 [21]: > 100 µM (inactive) | GI50 [22]: > 100 µM (inactive) | GI50 [23]: > 100 µM (inactive) | GI50 [25]: > 100 µM (inactive) | GI50 [26]: > 100 µM (inactive) | GI50 [27]: > 100 µM (inactive) | GI50 [30]: > 100 µM | GI50 [55]: > 100 µM (inactive) | GI50 [56]: > 100 µM (inactive) | GI50 [31]: > 100 µM (inactive) | GI50 [32]: > 100 µM (inactive) | GI50 [33]: > 100 µM (inactive) | GI50 [34]: > 100 µM (inactive) | GI50 [35]: > 100 µM (inactive) | GI50 [36]: > 100 µM (inactive) | GI50 [59]: > 100 µM (inactive) | GI50 [37]: > 100 µM (inactive) | GI50 [38]: > 100 µM (inactive) | GI50 [39]: > 100 µM (inactive) | GI50 [40]: > 100 µM (inactive) | GI50 [41]: > 100 µM (inactive) | GI50 [42]: > 100 µM (inactive) | GI50 [43]: > 100 µM (inactive) | GI50 [44]: > 100 µM (inactive) | GI50 [45]: > 100 µM (inactive) | GI50 [46]: > 100 µM (inactive) | GI50 [47]: > 100 µM (inactive) | GI50 [58]: > 100 µM (inactive) | GI50 [48]: > 100 µM (inactive) | GI50 [49]: > 100 µM (inactive) | GI50 [50]: > 100 µM (inactive) | GI50 [51]: > 100 µM (inactive) | GI50 [52]: > 100 µM (inactive)
